Entries after “also recorded” stand apart in the source; their conditions may differ. Where two headings read alike, the source gives them in different places.

For one series, the system named is HeLa cells. Nature of the series: Toxicity assay in HeLa cells (CellTiter 96 AQueous). It is filed as cell-based. The following applies: 24 h exposure, cell proliferation assay. The protocol:
HeLa cells were seeded at 5,000 cells per well in 96-well plates and cultured in Dulbecco’s modified Eagle’s medium (DMEM) (Wako Pure Chemical Industries, Osaka, Japan). After incubation for 24 h at 37°C with 5% CO2, staurosporine (Sigma-Aldrich, St. Louis, MO) and SHCs were added to each well (final DMSO concentration was 1%), after which the plates were incubated for another 24 h. Twenty microliters of tetrazolium solution, obtained from a CellTiter 96 AQueous one-solution cell proliferation assay kit (Promega, Madison, WI), was added into each well. The plate was incubated for 3 h under the same conditions mentioned above, and the absorbance at 490 nm was measured for the determination of cell proliferation.

In series [1] the test system is IMP-type MBL-producing Enterobacteriaceae. The experiment in a line: Susceptibility testing, 19 IMP-type MBL-producing Enterobacteriaceae isolates. The following applies: for Isolates whose MPM MIC decreased to susceptible criteria (MIC ≤1 μg/ml): IMP-producing isolates. In kind it is cell-based. The protocol:
(§1) MICs were determined via the microdilution method according to the CLSI guidelines ([38]). In brief, 5 × 10^4 bacterial cells were inoculated in 100 μl of cation-adjusted Mueller-Hinton broth (Becton, Dickinson and Company, Franklin Lakes, NJ) containing the β-lactams and appropriately diluted inhibitors. The final concentration of DMSO was maintained at 2% in the assays. The tested plates were then incubated at 35°C for 16 to 20 h. The MIC value was determined as the lowest concentration of tested β-lactams where no bacterial growth was visibly observed. The optical density at 600 nm (OD600) value was measured using a plate reader for drawing the heat maps. The FIC index value was calculated using the following equation: FIC index=MIC of β-lactam with inhibitor/MIC of β-lactam alone+MIC of inhibitor with β-lactam/MIC of inhibitor alone

In series [2] the target is T1, angiotensin-converting enzyme (ACE) (Homo sapiens, UniProt P12821).
T1 construct: purchased Dojindo Laboratories ACE Kit-WST
T1 sequence (P12821 30-1306): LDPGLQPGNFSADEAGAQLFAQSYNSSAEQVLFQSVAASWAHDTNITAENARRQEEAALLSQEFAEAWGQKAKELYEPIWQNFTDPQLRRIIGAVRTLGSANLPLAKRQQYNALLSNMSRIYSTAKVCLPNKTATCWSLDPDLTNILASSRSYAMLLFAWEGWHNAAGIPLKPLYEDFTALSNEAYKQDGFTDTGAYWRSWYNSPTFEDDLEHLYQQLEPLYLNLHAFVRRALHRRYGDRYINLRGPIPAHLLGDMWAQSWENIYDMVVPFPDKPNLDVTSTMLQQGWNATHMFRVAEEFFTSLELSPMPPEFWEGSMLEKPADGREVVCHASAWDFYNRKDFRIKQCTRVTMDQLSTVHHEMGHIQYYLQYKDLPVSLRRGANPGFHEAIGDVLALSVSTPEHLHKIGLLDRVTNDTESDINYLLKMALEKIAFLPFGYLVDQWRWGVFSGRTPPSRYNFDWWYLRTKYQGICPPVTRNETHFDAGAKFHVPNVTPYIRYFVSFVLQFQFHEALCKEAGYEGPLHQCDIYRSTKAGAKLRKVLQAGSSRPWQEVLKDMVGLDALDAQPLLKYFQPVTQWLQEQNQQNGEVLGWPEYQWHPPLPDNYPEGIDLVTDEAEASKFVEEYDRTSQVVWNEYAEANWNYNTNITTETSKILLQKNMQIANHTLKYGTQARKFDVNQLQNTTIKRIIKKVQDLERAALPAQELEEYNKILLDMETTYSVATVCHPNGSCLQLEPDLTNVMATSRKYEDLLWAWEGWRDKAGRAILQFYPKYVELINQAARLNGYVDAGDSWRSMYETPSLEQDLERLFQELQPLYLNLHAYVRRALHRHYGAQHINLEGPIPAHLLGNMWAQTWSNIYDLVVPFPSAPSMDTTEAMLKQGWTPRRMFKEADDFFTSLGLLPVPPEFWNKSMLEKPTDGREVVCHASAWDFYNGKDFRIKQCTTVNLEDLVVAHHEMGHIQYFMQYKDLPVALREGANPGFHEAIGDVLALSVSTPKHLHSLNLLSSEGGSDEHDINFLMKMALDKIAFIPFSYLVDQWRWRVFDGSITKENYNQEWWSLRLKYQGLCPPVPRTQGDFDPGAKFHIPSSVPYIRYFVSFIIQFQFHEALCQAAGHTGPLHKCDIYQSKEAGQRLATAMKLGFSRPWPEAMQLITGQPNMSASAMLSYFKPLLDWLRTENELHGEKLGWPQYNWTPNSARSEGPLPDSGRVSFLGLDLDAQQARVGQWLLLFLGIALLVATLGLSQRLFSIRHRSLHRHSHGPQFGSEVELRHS
The experiment in a line: ACE inhibition (ACE Kit-WST). In kind it is biochemical. The following applies: human metalloenzyme. The protocol: The serine–β-lactamases (1 nM) TLA-3, CMY-2, and OXA-48 were mixed with SFC in 100 mM phosphate buffer (pH 7.0) and incubated for 5 min at 30°C. Nitrocefin was added to reach a concentration of 100 μM, and the velocity of nitrocefin hydrolysis was monitored at 482 nm. Avibactam (MedKoo Bioscience, Morrisville, NC) was used as an inhibitor for serine–β-lactamases. The inhibitory effect of SFC against ACE was evaluated using ACE Kit-WST (Dojindo Laboratories, Kumamoto, Japan). The residual ACE activity was calculated as described in the manufacturer’s protocol as follows: [1 − (Acontrol − Asample)/(Acontrol − Abackground)] × 100. EDTA solution (Nippon Gene, Tokyo, Japan) was used as an ACE inhibitor.

Series [3] concerns E. coli BL21(DE3)/pET-DIM-1. Nature of the series: Susceptibility testing, DIM-1-producing E. coli. In kind it is cell-based. The conditions noted are these: Escherichia coli. The protocol: as §1
For the next series, the system named is E. coli DH5α/pBC-IMP-1. Nature of the series: Susceptibility and checkerboard testing, IMP-1-producing E. coli. It is filed as cell-based, Escherichia coli. The following applies: for MIC: Escherichia coli. On the procedure: as §1
Unless noted otherwise, the FIC index was defined as the lowest value among all obtained values. The synergistic effect was defined as the effect observed when the FIC index value was ≤0.5.

The test system of the next series is mice. The experiment in a line: Acute toxicity study in mice. In kind it is in vivo. The conditions noted are these: intravenous (i.v.) single injection, 7 days. The protocol: (§2) All experiments were approved by the Nagoya University Animal Ethics Committee, and all experiments were performed in a manner that minimized animal suffering. Male CD1 mice (4 weeks old; 20 to 25 g body weight) were purchased from Charles River Laboratories Japan (Yokohama, Japan). E. coli NUBL-24 (blaIMP-1) and K. pneumoniae MS5674 (blaNDM-1 and blaVIM-1) strains were inoculated on LB agar plates and grown for 18 h at 37°C. Bacteria were then scraped from the plates, and their concentration was adjusted to 5 × 10^6 to 1 × 10^7 CFU in saline solution containing 5% mucin; this solution was then i.p. injected into the mice. At 1 and 3 h after infection, saline solution, MPM, inhibitors, and a combination of MPM and inhibitor were i.p. injected. Mice were monitored for 7 days to formulate survival curves, after which they were euthanized by CO2 asphyxiation.
(§3) For acute toxicity studies, mice were i.p. (400 μl/injection) or i.v. (150 μl/injection) administered a single injection of serially diluted SFC. Mortality was then monitored for 7 days.

The nature of series [4]: Acute toxicity study in mice. It is filed as in vivo. The conditions noted are these: male, CD1, mouse, in vivo, ip, intraperitoneal (i.p.) single injection, read-out: 50% lethal dose (LD50). On the procedure: as §2, §3
In a further series the target is T2, L1 (Stenotrophomonas maltophilia, UniProt P52700).
T2 construct: made in house
T2 sequence (P52700 34-290): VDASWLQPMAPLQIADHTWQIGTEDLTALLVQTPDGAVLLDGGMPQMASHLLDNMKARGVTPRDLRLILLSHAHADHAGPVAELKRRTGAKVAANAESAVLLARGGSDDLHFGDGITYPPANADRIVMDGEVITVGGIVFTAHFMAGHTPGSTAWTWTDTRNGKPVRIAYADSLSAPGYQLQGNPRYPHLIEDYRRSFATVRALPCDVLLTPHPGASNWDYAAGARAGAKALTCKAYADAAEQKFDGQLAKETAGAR
Nature of the series: In vitro inhibition assay, IPM hydrolysis by L1. The following applies: even in the presence of 100 μM SFC. It is filed as biochemical. On the procedure:
(§4) MBL (10 nM) was mixed with the inhibitors and incubated for 5 min at 30°C. IPM was added to reach a concentration of 150 μM, and the velocity of IPM hydrolysis was monitored at 298 nm. The assay was performed at 30°C using 10 mM HEPES (pH 7.5) buffer containing 200 mM NaCl and 50 μg/ml bovine serum albumin (BSA) for IMP-1, NDM-1, VIM-2, and SMB-1. For SFH-1 and L1, another 10 mM HEPES (pH 7.5) buffer containing 200 mM NaCl, 20 μM ZnSO4, and 50 μg/ml BSA was used.

The test system of series [5] is P. aeruginosa PAO1/pME-IMP-1. The experiment in a line: Susceptibility testing, IMP-1-producing P. aeruginosa PAO1. In kind it is cell-based. The conditions noted are these: Pseudomonas aeruginosa. The protocol: as §1
Series [6] deals with P. aeruginosa PAO1/pME-NDM-1. Nature of the series: Susceptibility testing, NDM-1-producing P. aeruginosa PAO1. In kind it is cell-based. The conditions noted are these: Pseudomonas aeruginosa. On the procedure: as §1
Another series has as its target T3, VIM-2 (Escherichia coli, UniProt Q5U7L7).
T3 construct: made in house
The experiment in a line: Inhibition of IPM hydrolysis by purified VIM-2, Ki by Lineweaver-Burk plots. It is filed as biochemical. The conditions noted are these: IPM as substrate, competitive model, mean of three replicates; read-out: Inhibition constant Ki VIM-2. On the procedure:
as §4
Initial velocities (vo) were measured after varying the concentrations of IPM and inhibitors, and inverse velocities (1/vo) were plotted against inverse IPM concentrations […]. Lineweaver-Burk plots were constructed to obtain the inhibition constant (Ki) with the competitive inhibition model using the SigmaPlot 13 suite (Hulinks).

Another series has as its system SFH-1. Nature of the series: In vitro inhibition assay, IPM hydrolysis by SFH-1. It is filed as biochemical. The following applies: even in the presence of 100 μM SFC. On the procedure:
as §4

The subject of a further series is E. coli. Nature of the series: Growth inhibition by inhibitor alone. It is filed as cell-based, Escherichia coli. The conditions noted are these: at least at 128 μg/ml. On the procedure: as §1
Where [7] appears, read: read-out: MIC of MPM + inhibitor (8 μg/ml).
Setting [8] is: read-out: MIC of MPM + inhibitor (32 μg/ml).
[9] abbreviates: PAO1, read-out: MIC of MPM + inhibitor (10 μg/ml).
Where [10] appears, read: PAO1, read-out: MIC of MPM + inhibitor (50 μg/ml).

As a reminder, the LD50 is the dose at which mortality reaches 50%. One may read the Ki as a measure of affinity in units of concentration, obtained from inhibition or displacement. `Cc1oc(C)c(S(N)(=O)=O)c1C(=O)O` [SFC, 2,5-dimethyl-4-sulfamoylfuran-3-carboxylic acid]: the “Toxicity in HeLa cells” value in the series with HeLa cells is “very low toxicity; also recorded: low toxicity”. Besides, in series [1] (10 μg/ml SFC, IMP-producing Enterobacteriaceae), the “Reduction of MPM MIC50” value came out at 128 fold. Further, the “Isolates whose MPM MIC decreased to susceptible criteria (MIC ≤1 μg/ml)” value is recorded as 16/19 in [1] (addition of 10 μg/ml SFC) and 17/19 in [1] (addition of 50 μg/ml SFC). The “Inhibitory effect on ACE” value in [2] was “no inhibitory effect”. Further, the MIC turned out to be 2 µg/mL in series [3] (setting [7]); 2 µg/mL in series [3] (setting [8]); 0.031 µg/mL with E. coli DH5α/pBC-IMP-1 (setting [7]); 0.031 µg/mL with E. coli DH5α/pBC-IMP-1 (setting [8]); 32 µg/mL in series [5] (setting [9]); 16 µg/mL in [5] (setting [10]). Also, the MIC in series [6] (setting [9]) and in series [6] (setting [10]) was 4 µg/mL throughout. Further, the “MIC meropenem + 2 μg/mL compound” value in the series with E. coli DH5α/pBC-IMP-1 (E. coli DH5α/pBC-IMP-1) came to 0.063 µg/mL. The “Reduction in MPM MIC” value with E. coli DH5α/pBC-IMP-1 (E. coli DH5α/pBC-IMP-1, 2 μg/ml compound) is 16 fold; in the series with E. coli DH5α/pBC-IMP-1 (E. coli DH5α/pBC-IMP-1, 10 μg/ml compound), 16 fold. Further, the FIC index with E. coli DH5α/pBC-IMP-1 (checkerboard with MPM, E. coli DH5α/pBC-IMP-1, lowest value) amounted to 0.06. Further, in the series with mice, the “50% lethal dose (LD50)” value is recorded as 246 mg/kg of body weight. The LD50 at 7 days in series [4] was above 1000 mg/kg. Also, the “Inhibition of IPM hydrolyzing activity of L1” value at L1 was “did not inhibit”. Also, the Ki on VIM-2 came to 2810 nM. Also, the “Inhibition of IPM hydrolyzing activity of SFH-1” value with SFH-1 is given as “did not inhibit”. Also, in the series with E. coli, the “Growth inhibition by SFC alone” value is listed as “did not show growth inhibition”.

(Values after article PMC7078479, “Sulfamoyl Heteroarylcarboxylic Acids as Promising Metallo-β-Lactamase Inhibitors for Controlling Bacterial Carbapenem Resistance” (mBio, 2020).)
